Results on 3 molecules are retold here after BindingDB's records for doi:10.1021/jm00177a018 (1980).

Structures are written as SMILES.

This assay has as its target Aldehyde oxidase (Oryctolagus cuniculus). Kind of assay: Tested for its ability to inhibit rabbit liver aldehyde oxidase catalyzed oxidation of N-methyl-nicotinamide (NMN).
What is called Ki is the dissociation constant of the complex between target and ligand, obtained from inhibition or displacement. Low readings indicate higher affinity, high ones lower affinity. As to `CCOC(CCP(=O)(OCC)OCC)OCC`, the Ki was found to be 200 µM.

On to `CCOP(=O)(CC=O)OCC`, for which the Ki came to 300 µM.

`CCOP(=O)(CCC=O)c1ccccc1` (stereo not drawn) had a Ki of 100 µM.
